Measurements taken from patent publication US20090118274A1, “MONOCYCLIC AMINOPROPYL TETRAHYDRO-PYRAZOLO-PYRIDINE MODULATORS OF CATHEPSIN S” (priority 2007, published 2009).

Target: T1, Recombinant human cathepsin S (CatS) (Homo sapiens, UniProt P25774)
T1 construct: made in house
Experiment: Recombinant human cathepsin S (CatS) fluorogenic substrate inhibition assay
Format: biochemical
Conditions: average of results obtained; substrate Z-Valine-Valine-Arginine-AMC 10 μM, pH 5.0; read-out: CatS IC50
Experimental: Recombinant human cathepsin S (CatS) was expressed in the baculovirus system and purified in one step with a thiopropyl-sepharose column. […] The assay is run in 150 mM sodium acetate pH 5.0 containing 1.5 mM DTT and 150 mM NaCl. […] Measurements are taken every min for 20 min. The rate is calculated from the slope of the increase in fluorescence and the percent inhibition is calculated from this.

T1 sequence (P25774 115-331): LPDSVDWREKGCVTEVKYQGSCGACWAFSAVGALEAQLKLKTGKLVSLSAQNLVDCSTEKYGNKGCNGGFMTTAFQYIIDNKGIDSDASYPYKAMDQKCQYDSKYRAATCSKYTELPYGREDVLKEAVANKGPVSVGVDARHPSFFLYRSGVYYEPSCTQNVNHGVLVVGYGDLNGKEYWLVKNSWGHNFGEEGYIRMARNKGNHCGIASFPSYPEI

| Compound | IC50 |
| --- | --- |
| CS(=O)(=O)N1CCc2c(c(-c3ccc(C(F)(F)F)c(CNc4nc5ccccc5o4)c3)nn2CC(O)CN2CCCC2)C1 (centres unmarked) [Example 68, 1-{3-[3-(Benzooxazol-2-ylaminomethyl)-4-trifluoromethyl-phenyl]-5-methanesulfonyl-4,5,6,7-tetrahydro-pyrazolo[4,3-c]pyridin-1-yl}-3-pyrrolidin-1-yl-propan-2-ol] | 750 nM |
| Cc1cc(C(=O)NCc2cc(-c3nn(CC(O)CN4CCCC4)c4c3CN(S(C)(=O)=O)CC4)ccc2C(F)(F)F)ccc1F (centres unmarked) [Example 96, 4-Fluoro-N-{5-[1-(2-hydroxy-3-pyrrolidin-1-yl-propyl)-5-methanesulfonyl-4,5,6,7-tetrahydro-1H-pyrazolo[4,3-c]pyridin-3-yl]-2-trifluoromethyl-benzyl}-3-methyl-benzamide] | 240 nM |
| CC(C)CC(=O)NCc1cc(-c2nn(CC(O)CN3CCC(C(C)(C)C)CC3)c3c2CN(S(C)(=O)=O)CC3)ccc1C(F)(F)F (centres unmarked) [Example 289, N-(5-{1-[3-(4-tert-Butyl-piperidin-1-yl)-2-hydroxy-propyl]-5-methanesulfonyl-4,5,6,7-tetrahydro-1H-pyrazolo[4,3-c]pyridin-3-yl}-2-trifluoromethyl-benzyl)-3-methyl-butyramide] | 90 nM |
| CS(=O)(=O)N1CCc2c(c(-c3ccc(C(F)(F)F)c(CNC(=O)c4ccc(F)cc4)c3)nn2CC(O)CN2CCS(=O)(=O)CC2)C1 (centres unmarked) [Example 169, N-(5-{1-[3-(1,1-Dioxo-1λ^6-thiomorpholin-4-yl)-2-hydroxy-propyl]-5-methanesulfonyl-4,5,6,7-tetrahydro-1H-pyrazolo[4,3-c]pyridin-3-yl}-2-trifluoromethyl-benzyl)-4-fluoro-benzamide] | 550 nM |
| O=C(NCc1cc(-c2nn(CC(O)CN3CCC4(CCNC4=O)CC3)c3c2CN(C(=O)CO)CC3)ccc1C(F)(F)F)c1ccc(F)cc1 (centres unmarked) [Example 8, 4-Fluoro-N-(5-{5-(2-hydroxy-acetyl)-1-[2-hydroxy-3-(1-oxo-2,8-diazaspiro[4.5]dec-8-yl)-propyl]-4,5,6,7-tetrahydro-1H-pyrazolo[4,3-c]pyridin-3-yl}-2-trifluoromethyl-benzyl)-benzamide] | 20 nM |
| CS(=O)(=O)N1CCc2c(c(-c3ccc(C(F)(F)F)c(CNC(=O)c4ccc(F)cc4)c3)nn2CC(O)CN2CCC3(CCNC3=O)CC2)C1 (centres unmarked) [Example 16, 4-Fluoro-N-(5-{1-[2-hydroxy-3-(1-oxo-2,8-diaza-spiro[4.5]dec-8-yl)-propyl]-5-methanesulfonyl-4,5,6,7-tetrahydro-1H-pyrazolo[4,3-c]pyridin-3-yl}-2-trifluoromethyl-benzyl)-benzamide] | 60 nM |
| CS(=O)(=O)N1CCc2c(c(-c3ccc(Cl)c(CNC(=O)c4ccc(F)cc4)c3)nn2CC(O)CN2CCC(F)(F)C2)C1 (centres unmarked) [Example 84, N-(2-Chloro-5-{1-[3-(3,3-difluoro-pyrrolidin-1-yl)-2-hydroxy-propyl]-5-methanesulfonyl-4,5,6,7-tetrahydro-1H-pyrazolo[4,3-c]pyridin-3-yl}-benzyl)-4-fluoro-benzamide] | 180 nM |
| Cc1nc2ccccc2c(=O)n1Cc1cc(-c2nn(CCCN3CCC4(CCNC4=O)CC3)c3c2CN(S(C)(=O)=O)CC3)ccc1C(F)(F)F [Example 174, 3-(5-{5-Methanesulfonyl-1-[3-(1-oxo-2,8-diaza-spiro[4.5]dec-8-yl)-propyl]-4,5,6,7-tetrahydro-1H-pyrazolo[4,3-c]pyridin-3-yl}-2-trifluoromethyl-benzyl)-2-methyl-3H-quinazolin-4-one] | 13500 nM |
| CS(=O)(=O)N1CCc2c(c(-c3ccc(C(F)(F)F)c(CNCc4ccccc4)c3)nn2CC(O)CN2CCCC2)C1 (centres unmarked) [Example 205, 1-{3-[3-(Benzylamino-methyl)-4-trifluoromethyl-phenyl]-5-methanesulfonyl-4,5,6,7-tetrahydro-pyrazolo[4,3-c]pyridin-1-yl}-3-pyrrolidin-1-yl-propan-2-ol] | 1630 nM |
| CC(C)CC(=O)NCc1cc(-c2nn(CC(O)CN3CCC(C)(C)CC3)c3c2CN(S(C)(=O)=O)CC3)ccc1C(F)(F)F (centres unmarked) [Example 251, N-(5-{1-[3-(4,4-Dimethyl-piperidin-1-yl)-2-hydroxy-propyl]-5-methanesulfonyl-4,5,6,7-tetrahydro-1H-pyrazolo[4,3-c]pyridin-3-yl}-2-trifluoromethyl-benzyl)-3-methyl-butyramide] | 300 nM |
| CS(=O)(=O)N1CCc2c(c(-c3ccc(C(F)(F)F)c(CNC(=O)c4ccccc4)c3)nn2CCCN2CCC3(CCNC3=O)CC2)C1 [Example 144, N-(5-{5-Methanesulfonyl-1-[3-(1-oxo-2,8-diaza-spiro[4.5]dec-8-yl)-propyl]-4,5,6,7-tetrahydro-1H-pyrazolo[4,3-c]pyridin-3-yl}-2-trifluoromethyl-benzyl)-benzamide] | 110 nM |
| CS(=O)(=O)N1CCc2c(c(-c3ccc(Cl)c(CNC(=O)c4ccccc4)c3)nn2CC(O)CN2CCCC2)C1 (centres unmarked) [Example 69, N-{2-Chloro-5-[1-(2-hydroxy-3-pyrrolidin-1-yl-propyl)-5-methanesulfonyl-4,5,6,7-tetrahydro-1H-pyrazolo[4,3-c]pyridin-3-yl]-benzyl}-benzamide] | 500 nM |
| CS(=O)(=O)N1CCc2c(c(-c3ccc(C(F)(F)F)c(CNC(=O)c4ccc(Cl)c(Cl)c4)c3)nn2CC(O)CN2CCCC2)C1 (centres unmarked) [Example 229, 3,4-Dichloro-N-{5-[1-(2-hydroxy-3-pyrrolidin-1-yl-propyl)-5-methanesulfonyl-4,5,6,7-tetrahydro-1H-pyrazolo[4,3-c]pyridin-3-yl]-2-trifluoromethyl-benzyl}-benzamide] | 780 nM |
| CN(C)c1ccccc1C(=O)NCc1cc(-c2nn(CC(O)CN3CCCC3)c3c2CN(S(C)(=O)=O)CC3)ccc1C(F)(F)F (centres unmarked) [Example 239, 2-Dimethylamino-N-{5-[1-(2-hydroxy-3-pyrrolidin-1-yl-propyl)-5-methanesulfonyl-4,5,6,7-tetrahydro-1H-pyrazolo[4,3-c]pyridin-3-yl]-2-trifluoromethyl-benzyl}-benzamide] | 950 nM |
| CS(=O)(=O)N1CCc2c(c(-c3ccc(C(F)(F)F)c(CNC(=O)c4ccc(F)cc4)c3)nn2CC(O)CN2CCC(CO)CC2)C1 (centres unmarked) [Example 89, 4-Fluoro-N-(5-{1-[2-hydroxy-3-(4-hydroxymethyl-piperidin-1-yl)-propyl]-5-methanesulfonyl-4,5,6,7-tetrahydro-1H-pyrazolo[4,3-c]pyridin-3-yl}-2-trifluoromethyl-benzyl)-benzamide] | 90 nM |
| CS(=O)(=O)N1CCc2c(c(-c3ccc(Cl)c(CC(=O)Nc4ccc(F)cc4)c3)nn2CCCN2CCOCC2)C1 [Example 290, 2-{2-Chloro-5-[5-methanesulfonyl-1-(3-morpholin-4-yl-propyl)-4,5,6,7-tetrahydro-1H-pyrazolo[4,3-c]pyridin-3-yl]-phenyl}-N-(4-fluoro-phenyl)-acetamide] | 1850 nM |
| CN(C)C1CCN(CC(O)Cn2nc(-c3ccc(C(F)(F)F)c(CNC(=O)c4ccc(F)cc4)c3)c3c2CCN(S(C)(=O)=O)C3)C1 (centres unmarked) [Example 26, N-(5-{1-[3-(3-Dimethylamino-pyrrolidin-1-yl)-2-hydroxy-propyl]-5-methanesulfonyl-4,5,6,7-tetrahydro-1H-pyrazolo[4,3-c]pyridin-3-yl}-2-trifluoromethyl-benzyl)-4-fluoro-benzamide] | 360 nM |
| CS(=O)(=O)N1CCc2c(c(-c3ccc(Cl)c(CNC(=O)c4ccc(F)cc4)c3)nn2CC(O)CN2CCC(C(N)=O)CC2)C1 (centres unmarked) [Example 12, 1-[3-(3-{4-Chloro-3-[(4-fluoro-benzoylamino)-methyl]-phenyl}-5-methanesulfonyl-4,5,6,7-tetrahydro-pyrazolo[4,3-c]pyridin-1-yl)-2-hydroxy-propyl]-piperidine-4-carboxylic acid amide] | 70 nM |
| CC(C)CC(=O)NCc1cc(-c2nn(CC(O)CN3CCC(C(C)(C)C)CC3)c3c2CN(C(=O)CO)CC3)ccc1C(F)(F)F (centres unmarked) [Example 298, N-{5-[1-[3-(4-tert-Butyl-piperidin-1-yl)-2-hydroxy-propyl]-5-(2-hydroxy-acetyl)-4,5,6,7-tetrahydro-1H-pyrazolo[4,3-c]pyridin-3-yl]-2-trifluoromethyl-benzyl}-3-methyl-butyramide] | 80 nM |
| CS(=O)(=O)N1CCc2c(c(-c3ccc(C(F)(F)F)c(CNC(=O)C4CCCCCC4)c3)nn2CC(O)CN2CCC3(CCNC3=O)CC2)C1 (centres unmarked) [Example 167, Cycloheptanecarboxylic acid 5-{1-[2-hydroxy-3-(1-oxo-2,8-diaza-spiro[4.5]dec-8-yl)-propyl]-5-methanesulfonyl-4,5,6,7-tetrahydro-1H-pyrazolo[4,3-c]pyridin-3-yl}-2-trifluoromethyl-benzylamide] | 490 nM |
| CNC(=O)NC1CCN(CC(O)Cn2nc(-c3ccc(Cl)c(CNC(=O)c4ccc(F)cc4)c3)c3c2CCN(S(C)(=O)=O)C3)CC1 (centres unmarked) [Example 77, N-[2-Chloro-5-(1-{2-hydroxy-3-[4-(3-methyl-ureido)-piperidin-1-yl]-propyl}-5-methanesulfonyl-4,5,6,7-tetrahydro-1H-pyrazolo[4,3-c]pyridin-3-yl)-benzyl]-4-fluoro-benzamide] | 30 nM |
| CC(C)CC(=O)NCc1cc(-c2nn(CC(O)CN3CCCC3)c3c2CN(S(C)(=O)=O)CC3)ccc1C(F)(F)F (centres unmarked) [Example 281, N-{5-[1-(2-Hydroxy-3-pyrrolidin-1-yl-propyl)-5-methanesulfonyl-4,5,6,7-tetrahydro-1H-pyrazolo[4,3-c]pyridin-3-yl]-2-trifluoromethyl-benzyl]-3-methyl-butyramide] | 370 nM |
| CS(=O)(=O)N1CCc2c(c(-c3ccc(C(F)(F)F)c(C(=O)NCc4ccccc4)c3)nn2CC(O)CN2CCCC2)C1 (centres unmarked) [Example 193, N-Benzyl-5-[1-(2-hydroxy-3-pyrrolidin-1-yl-propyl)-5-methanesulfonyl-4,5,6,7-tetrahydro-1H-pyrazolo[4,3-c]pyridin-3-yl]-2-trifluoromethyl-benzamide] | 5600 nM |
